Laboratory results from ChEMBL document CHEMBL1155325, “Design and synthesis of (2R,3S)-iodoreboxetine analogues for SPECT imaging of the noradrenaline transporter” (Bioorg Med Chem Lett, 2009).

Experiments:
Assay type in all cases: tissue-based
[1] = biological target: Transporter (Rattus norvegicus, UniProt Q63380); experiment: Displacement of [3H]nisoxetine from NAT in Sprague-Dawley rat brain after 4 hrs by liquid scintillation analysis
[2] = biological target: Sodium-dependent serotonin transporter (Rattus norvegicus, UniProt P31652); experiment: Displacement of [3H]citalopram from SERT in Sprague-Dawley rat brain after 2 hrs by liquid scintillation analysis
Sodium-dependent serotonin transporter, sequence (P31652 whole entry): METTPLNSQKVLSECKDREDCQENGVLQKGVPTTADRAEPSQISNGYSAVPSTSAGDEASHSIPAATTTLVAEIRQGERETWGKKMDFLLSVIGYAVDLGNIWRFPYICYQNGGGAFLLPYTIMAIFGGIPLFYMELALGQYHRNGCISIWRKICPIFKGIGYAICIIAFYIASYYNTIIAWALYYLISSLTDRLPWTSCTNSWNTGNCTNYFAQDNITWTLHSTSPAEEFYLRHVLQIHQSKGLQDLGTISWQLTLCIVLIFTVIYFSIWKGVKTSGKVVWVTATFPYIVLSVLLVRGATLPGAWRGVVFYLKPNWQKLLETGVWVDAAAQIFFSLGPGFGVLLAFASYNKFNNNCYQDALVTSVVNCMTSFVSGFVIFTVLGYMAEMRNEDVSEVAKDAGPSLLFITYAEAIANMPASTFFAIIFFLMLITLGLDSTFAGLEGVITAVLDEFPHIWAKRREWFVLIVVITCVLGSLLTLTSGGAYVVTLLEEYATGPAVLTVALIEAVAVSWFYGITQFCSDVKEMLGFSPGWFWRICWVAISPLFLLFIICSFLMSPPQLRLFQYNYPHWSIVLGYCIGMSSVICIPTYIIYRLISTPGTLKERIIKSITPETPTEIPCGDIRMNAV

[3] = biological target: Sodium-dependent dopamine transporter (Rattus norvegicus, UniProt P23977); experiment: Displacement of [3H]WIN-35428 from DAT in Sprague-Dawley rat brain after 2 hrs by liquid scintillation analysis
Sodium-dependent dopamine transporter, sequence (P23977 whole entry): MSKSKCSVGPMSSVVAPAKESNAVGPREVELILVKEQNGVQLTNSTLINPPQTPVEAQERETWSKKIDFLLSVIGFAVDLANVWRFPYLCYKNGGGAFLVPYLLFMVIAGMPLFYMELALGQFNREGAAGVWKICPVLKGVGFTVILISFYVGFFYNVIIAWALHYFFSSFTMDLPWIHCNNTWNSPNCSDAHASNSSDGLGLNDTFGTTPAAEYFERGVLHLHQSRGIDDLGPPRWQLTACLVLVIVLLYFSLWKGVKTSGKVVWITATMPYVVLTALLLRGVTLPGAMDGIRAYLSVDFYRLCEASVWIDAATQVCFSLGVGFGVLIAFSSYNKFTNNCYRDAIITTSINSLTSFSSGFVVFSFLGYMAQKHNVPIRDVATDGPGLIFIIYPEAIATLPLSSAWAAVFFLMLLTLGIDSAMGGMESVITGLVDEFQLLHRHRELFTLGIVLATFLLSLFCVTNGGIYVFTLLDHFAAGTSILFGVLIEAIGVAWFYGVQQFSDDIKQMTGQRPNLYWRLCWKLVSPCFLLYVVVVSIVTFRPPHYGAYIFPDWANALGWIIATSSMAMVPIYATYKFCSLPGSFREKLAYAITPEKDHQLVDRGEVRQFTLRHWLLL

Transporter, sequence (Q63380 whole entry): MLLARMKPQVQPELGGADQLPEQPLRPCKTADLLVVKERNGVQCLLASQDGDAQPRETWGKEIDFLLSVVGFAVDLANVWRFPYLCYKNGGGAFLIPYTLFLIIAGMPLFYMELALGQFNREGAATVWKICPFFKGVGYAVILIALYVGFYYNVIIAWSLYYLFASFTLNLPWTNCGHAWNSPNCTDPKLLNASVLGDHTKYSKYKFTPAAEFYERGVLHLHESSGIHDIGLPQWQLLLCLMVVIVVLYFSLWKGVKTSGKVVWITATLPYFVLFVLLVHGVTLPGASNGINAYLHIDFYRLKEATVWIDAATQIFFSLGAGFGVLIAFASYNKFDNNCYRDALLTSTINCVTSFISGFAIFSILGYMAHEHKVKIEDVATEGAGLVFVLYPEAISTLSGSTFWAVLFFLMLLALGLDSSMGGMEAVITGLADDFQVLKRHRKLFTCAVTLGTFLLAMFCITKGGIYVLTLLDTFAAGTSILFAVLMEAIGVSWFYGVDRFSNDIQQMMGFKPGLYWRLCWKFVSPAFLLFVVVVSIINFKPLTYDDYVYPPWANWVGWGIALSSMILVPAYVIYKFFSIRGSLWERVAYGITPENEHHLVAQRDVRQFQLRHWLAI

| Compound | Ki [1] [µM] | Ki [2] [µM] | Ki [3] [µM] |
| --- | --- | --- | --- |
| CCOc1ccccc1O[C@@H](c1ccc(I)cc1)[C@H]1CNCCO1 | 0.0582 |  |  |
| Ic1cccc(O[C@@H](c2ccccc2)[C@H]2CNCCO2)c1 | 1.7 | 0.154 | 1.9 |
| Ic1ccc(O[C@@H](c2ccccc2)[C@H]2CNCCO2)cc1 | 1.1 | 0.0345 | 2.1 |

Compounds with a lower Ki [1], results first:

| Ki [1] [µM] | Ki [2] [µM] | Ki [3] [µM] | Compound |
| --- | --- | --- | --- |
| 0.00084 |  |  | Ic1ccccc1O[C@@H](c1ccccc1)[C@@H]1CNCCO1 |
| 0.0538 |  |  | CCOc1ccccc1O[C@@H](c1ccc(I)cc1)[C@@H]1CNCCO1 |
| 0.0084 | 0.0515 | 0.526 | Ic1ccccc1O[C@@H](c1ccccc1)[C@H]1CNCCO1 |
